Consider two compounds from patent publication US20110015410A1, “NOVEL USE OF SCOPARONE” (Kyungpook National University Industry Academic Cooperation …, priority 2007, published 2011).

For assay [1], the system named is vascular smooth muscle cells. As to the kind of experiment: Proliferation of vascular smooth muscle cells on treatment with the AMPK inhibitor CompC. Format: cell-based, Sprague-Dawley white rats. The conditions noted are these: cells treated with CompC, described as an AMPK inhibitor.
Assay [2] has as its system vascular smooth muscle cells. Description: Inhibition of proliferation of vascular smooth muscle cells (WST cell counting). The note with it: scoparone 0, 5, 10, 20 or 50 μM, 48 hours, absorbance at 450 nm. In kind it is cell-based, Sprague-Dawley white rats. Here is the method:
Vascular smooth muscle cells were isolated from the thoracic aorta of Sprague-Dawley white rats and cultured in a medium containing 20% fetal bovine serum.
The specificity of vascular smooth muscle cells was confirmed by staining the cells with α-actin monoclonal antibody (Sigma, St Louis, Mo., USA). In this experiment, vascular smooth muscle cells subcultured 5-6 times were used. The cultured vascular smooth muscle cells were plated in a 60-mm tissue culture dish at a confluence of about 80-90%, and then cultured in 0.5% FBS DMEM medium for 24 hours to allow the cells to enter the stationary phase.
The primarily cultured vascular smooth muscle cells were cultured in a 96-well culture dish, and when the cells reached a confluence of 40%, the medium was replaced with 0.5% FBS-containing medium, and the cells were cultured for 24 hours to allow the cells to enter the stationary phase.

In assay [3] the test system is neointima formation in carotid artery. Description: Formation of neointima after balloon dilatation (carotid artery, H&E staining). Format: in vivo, Sprague-Dawley white rats. The conditions noted are these: high-fat diet containing 10 mg/kg or 100 mg/kg of scoparone; 2 weeks after balloon dilatation; vs negative control group. On the procedure: In order to examine whether scoparone inhibits the formation of neointima after balloon dilatation, an experiment was performed using Sprague-Dawley white rats fed with scoparone-containing feed.
As test subjects, male Sprague-Dawley white rats weighing about 300 g were used. The rats were grouped into a normal control group, a negative control group fed only with a high-fat diet (20% fat and 0.05% cholesterol) and a test group fed with a high-fat diet containing 10 mg/kg or 100 mg/kg of scoparone, each group consisting of 4 animals, and were kept at 22° C. under a 12-hr light/12-hr dark cycle. The negative control group and the test group were fed with the above-described diets from 3 days before performing balloon dilatation and were fed with the diets during 2 weeks after balloon dilatation. After 2 weeks, the carotid artery was isolated from the rats and stained with H&E (hematoxylin & eosin) in order to observe the formation of neointima. FIG. 2 is a micrograph (×100) showing the cross-section of the carotid artery of the rats 2 weeks after balloon dilatation.

In assay [4] the test system is AMPK. As to the kind of experiment: Phosphorylation of AMPK in vascular smooth muscle cells (Western blot). Format: cell-based, Sprague-Dawley white rats. The note with it: 50 μg of scoparone for 1, 2, 4, 6 and 12 hr. Here is the method: (§1) Cultured vascular smooth muscle cells were plated in a 60-mm tissue culture dish at a confluence of about 80-90%, and then cultured in 0.5% FBS-containing medium for 24 hours to allow the cells to enter the stationary phase. The cultured cells were divided into a control group not treated with scoparone, and five test groups which were treated with 50 μg of scoparone for 1 hr, 2 hr, 4 hr, 6 hr and 12 hr, respectively. From each of the groups, the total protein was isolated using RIPA buffer. Each of the isolated total proteins was boiled in buffer for 5 minutes, and then cooled on ice. Then, each total protein was separated according to size by electrophoresis on sodium dodecyl sulfate polyacrylamide. Then, each total protein was transferred to a PVDF membrane which was then allowed to react with monoclonal antibodies for pACC, pAMPK and AMPK to examine the expression and phosphorylation of the proteins.

Assay [5] has as its system ACC. Description: Phosphorylation of ACC in vascular smooth muscle cells (Western blot). In kind it is cell-based, Sprague-Dawley white rats. The note with it: 50 μg of scoparone for 1, 2, 4, 6 and 12 hr. Here is the method:
as §1
In general terms: In western blotting, separated proteins are transferred to a membrane and probed.

The subject of assay [6] is p53. As to the kind of experiment: Expression of p53 in vascular smooth muscle cells (Western blot). Format: cell-based, Sprague-Dawley white rats. On the procedure:
(§2) Cultured vascular muscle cells were plated in a 60-mm tissue culture dish at a confluence of about 80-90%, and then cultured in 0.5% FBS containing medium for 24 hours to allow the cells to enter the stationary phase. The cultured cells were divided into a control group not treated with scoparone, and five test groups which were treated with 50 μg of scoparone for 2 hr, 4 hr, 6 hr, 12 hr and 24 hr, respectively. From each of the groups, the total protein was isolated using RIPA buffer. Each of the isolated total proteins was boiled in buffer for 5 minutes, and then cooled on ice. Then, each total protein was separated according to size by electrophoresis on sodium dodecyl sulfate polyacrylamide gel. Then, each total protein was transferred to a PVDF membrane which was then allowed to react with antibodies for p53, p27, p21 and Cyclin D to examine the expression of the proteins.

The test system of assay [7] is p27. As to the kind of experiment: Expression of p27 in vascular smooth muscle cells (Western blot). Format: cell-based, Sprague-Dawley white rats. On the procedure: as §2
For assay [8], the system named is p21. As to the kind of experiment: Expression of p21 in vascular smooth muscle cells (Western blot). In kind it is cell-based, Sprague-Dawley white rats. Here is the method:
as §2

For assay [9], the system named is cyclin D. As to the kind of experiment: Expression of cyclin D in vascular smooth muscle cells (Western blot). The conditions noted are these: 50 μg of scoparone for 2, 4, 6, 12 and 24 hr. Format: cell-based, Sprague-Dawley white rats. Here is the method: as §2
For assay [10], the system named is JNK. Description: Phosphorylation of JNK in vascular smooth muscle cells (Western blot). The note with it: 50 μg of scoparone for 15, 30, 45, 60 and 90 min. In kind it is cell-based, Sprague-Dawley white rats. Here is the method:
(§3) In order to examine the signaling pathway of scoparone, the phosphorylation of JNK and Erk was examined.
(§4) Cultured vascular smooth muscle cells were plated in a 60-mm tissue culture dish at a confluence of 80-90%, and then cultured in 0.5% FBS-containing medium for 24 hours to allow the cells to enter the stationary phase. The cultured cells were divided into a control group not treated with scoparone, and five test groups which were treated with 50 μg of scoparone for 15 min, 30 min, 45 min, 60 min and 90 min, respectively. From each of the groups, the total protein was isolated using RIPA buffer. Each of the isolated total proteins was boiled in buffer for 5 minutes, and then cooled on ice. Then, each total protein was separated according to size by electrophoresis on sodium dodecyl sulfate polyacrylamide gel. Then, each total protein was transferred to a PVDF membrane which was then allowed to react with antibodies for pJNK, JNK, pErk and Erk to examine the expression and phosphorylation of the proteins.

In assay [11] the test system is Erk. As to the kind of experiment: Phosphorylation of Erk in vascular smooth muscle cells (Western blot). In kind it is cell-based, Sprague-Dawley white rats. The conditions noted are these: 50 μg of scoparone for 15, 30, 45, 60 and 90 min. On the procedure:
as §3, §4

Assay [12] has as its system ROS. Description: ROS production in vascular smooth muscle cells (DCF-DA fluorescence microscopy). In kind it is cell-based, Sprague-Dawley white rats. The note with it: TNF-α-containing media, scoparone 100 μM and 200 μM, 1 hour. Here is the method: When vascular smooth muscle cells were grown to a confluence of about 90% in a 6-well cell culture dish, the cells were cultured in 0.5% FBS DMEM medium for 24 hours. The cultured cells were divided into a control group treated with neither tumor necrosis factor (TNF-α nor scoparone, and three test groups which were treated with scoparone in tumor necrosis factor (TNF-α)-containing media at scoparone concentrations of 0 μM, 100 μM and 200 μM, respectively. The cells of each group were incubated for 1 hour, and then 40 μmol/L of 2′,7′-dichlorofluorecin diacetate (DCF-DA; Invitrogen), a fluorescent probe sensitive to ROS, was added thereto, and the cells were incubated for 30 minutes. The production of ROS in the cells was analyzed using an AxioCam MRc5 Carl Zeiss fluorescence microscope (Thornwood, N.Y.) which was excited at a 488-nm wavelength and emitted at 515-nm wavelength.

Assay [13] concerns VCAM-1. As to the kind of experiment: Expression of VCAM-1 in vascular smooth muscle cells (Western blot). In kind it is cell-based, Sprague-Dawley white rats. The conditions noted are these: TNF-α-containing media; scoparone 0, 10, 20, 50 and 100 μM; 24 hours. Here is the method:
Cultured vascular smooth muscle cells were plated in a 60-mm tissue culture dish at a confluence of about 80-90%, and then cultured in 0.5% FBS-containing medium for 24 hours to allow the cells to enter the stationary phase. The cultured cells were divided into a control group treated with neither scoparone nor tumor necrosis factor (TNF-α, and five test groups which were treated with scoparone in tumor necrosis factor (TNF-α)-containing media for 24 hours at scoparone concentrations of 0 μM, 10 μM, 20 μM, 50 μM and 100 μM, respectively. In addition, the cells were divided into five groups which were treated with 50 μg of scoparone for 15 min, 30 min, 45 min, 60 min and 90 min, respectively. From each of the groups, the total protein was isolated using RIPA buffer. Each of the isolated total protein was boiled in buffer for 5 minutes, and then cooled on ice. Then, each total protein was separated according to size by electrophoresis on sodium dodecyl sulfate polyacrylamide gel. Then, each total protein was transferred to a PVDF membrane which was then allowed to react with antibodies for VCAM and PAI-1 to examine the expression of the proteins. The membrane was further allowed to react with anti-actin antibody to examine whether the antibody uses a given amount of the proteins.

Assay [14] relates to AP-1. Description: DNA-binding activity of AP-1 (electrophoretic mobility shift assay). In kind it is cell-based, Sprague-Dawley white rats. The note with it: 10 ng TNF-α; scoparone 0, 10, 20, 50 and 100 μM; 24 hours; EMSA. On the procedure: (§5) Proteins such as cell cycle regulatory proteins or chemokine are regulated by the respective transcription factors. Accordingly, the DNA-binding activities of AP-1 that is a transcription factor regulating the expression of cell cycle regulatory proteins, and NF-κB that is a transcription factor regulating the expression of chemokine were analyzed using an electrophoretic mobility shift assay (EMSA).
(§6) Vascular smooth muscle cells were cultured in 0.5% FBS-containing medium for 24 hours. The cultured cells were divided into a control group treated with neither scoparone nor tumor necrosis factor (TNF-α, and five test groups which were treated with media containing 10 ng of tumor necrosis factor (TNF-α) for 24 hours at scoparone concentrations of 0 μM, 10 μM, 20 μM, 50 μM and 100 μM, respectively. Nuclear extracts were isolated from the vascular smooth muscle cells and labeled with radioisotope-labeled probes for AP-1 and NF-κB. Then, the labeled extracts were subjected to a protein-DNA reaction at room temperature for 20 minutes. After completion of the reaction, each sample was loaded on a 4% native polyarylamide gel and electrophoresed at 150 volt for 2 hours, followed by analysis.

Assay [15] has as its system NF-κB. As to the kind of experiment: DNA-binding activity of NF-κB (electrophoretic mobility shift assay). Format: cell-based, Sprague-Dawley white rats. The conditions noted are these: 10 ng TNF-α; scoparone 0, 10, 20, 50 and 100 μM; 24 hours; EMSA. On the procedure:
as §5, §6
(A gel shift assay detects complexes by their altered migration in electrophoresis.)

Assay [16] relates to human peripheral monocytes. The note with it: cited from earlier work.
For assay [17] the following is noted: high-cholesterol rabbit model; cited from earlier work.
The mark [18] stands for this setting: 50 μg of scoparone for 2, 4, 6, 12 and 24 hr.

As for `c1cc(-c2cnn3cc(-c4ccc(OCCN5CCCCC5)cc4)cnc23)ccn1` [CompC], the “proliferation of the vascular smooth muscle cells” value in assay [1] was “restored again”.
Turning to `COc1cc2ccc(=O)oc2cc1OC` [scoparone, 6,7-dimethoxycoumarin], the “proliferation of the vascular smooth muscle cells” value in assay [2] (with 10 ng/ml TNF-α) and in assay [2] (with 20 ng/ml PDGF) was “decreased in a dose-dependent manner” in each case. Also, the formation of neointima result in [3] was “decreased compared to that in the negative control group”. For the same compound, the “phosphorylation of AMPK” value in assay [4] was “time-dependently increased”. The “phosphorylation of ACC” value in assay [5] is reported as “time-dependently increased”. The “time of highest expression level of p53 after treatment” value in assay [6] (50 μg of scoparone) lay in the range of 2 to 4 h. Also, the “expression of p53” value in [6] (setting [18]) was “time-dependently increased”. For the same compound, the “time of highest expression level of p27 after treatment” value in assay [7] (50 μg of scoparone) stood at 24 h. In assay [7] (setting [18]), the “expression of p27” value is given as “time-dependently increased”. For the same compound, the “time of highest expression level of p21 after treatment” value in assay [8] (50 μg of scoparone) was determined as 24 h. Moreover, in assay [8] (setting [18]), the “expression of p21” value is “time-dependently increased”. Further, the “expression level of cyclin D” value in [9] is “decreased”. Moreover, the “phosphorylation of JNK” value in assay [10] is on record as “gradually increased with the passage of time”. The “time of highest phosphorylation of Erk after treatment” value in assay [11] turned out to be 45 min. Also, the “expression of ROS” value in assay [12] was “decreased”. Moreover, the “expression of VCAM-1” value in assay [13] is reported as “dose-dependently decreased”. For the same compound, the “DNA binding activity of AP-1” value in assay [14] is “concentration-dependently decreased”. For the same compound, the “DNA binding activity of NF-κB” value in [15] is “concentration-dependently decreased”. Moreover, the “growth of human peripheral monocytes” value in [16] was “inhibits”. In assay [17], the cholesterol levels result is reported as “lowered”. Besides, in assay [17], the triglyceride levels entry is reported as “lowered”.
